# Data from publication PMC12435400, “Thymidine Phosphorylase Inhibitory Potential and Molecular Docking Studies of Secondary Metabolites Isolated From Fernandoa adenophylla (Wall. ex G. Don) Steenis” (Chemistry & Biodiversity, 2025).
# Read-outs that look alike come from different tables or passages of the source.
# Columns and labels:
# [1] = molecular target: T1, recombinant EcTP enzyme (thymidine phosphorylase) (Escherichia coli, UniProt P07650); experiment: biochemical
# T1 construct: purchased
# Description: (§1) In this study, we utilized commercially available recombinant EcTP enzyme as a model for TP inhibition assessment due to its structural similarities with mammalian TP enzymes. Spectrophotometric TP inhibition assays were conducted by incubating 0.058 U of EcTP enzyme with 500 µM of test compounds at 30°C for 10 min. Subsequently, 1.5 mM of thymidine substrate was added, and absorbance changes were monitored for 10 min at 290 nm using a microplate reader. […] Mechanistic studies involved incubating the TP enzyme with varying inhibitor concentrations and substrate concentrations ranging from 0.1875 to 1.5 µM. Enzyme activity was assessed by measuring absorbance changes for an additional 10 min. Triplicate experiments were conducted for mechanistic investigations to ensure the results' robustness.
# [2] = molecular target: T2, thymidine phosphorylase (EcTP) (Escherichia coli, UniProt P07650); experiment: biochemical
# T2 construct: purchased
# Description: Mechanism‐based studies were carried out on the selected compounds, that is, 1, 2, and 5.
# as §1
# Chemical reactions were examined using kinetic studies to determine their rates, mode of inhibition, and the variables influencing these characteristics. The kind and mechanism of inhibition of derivatives are ascertained here. Test compounds (0.5–500 µM) were incubated with TP (0.058 U/200 µL) for 10 min at 30°C in mechanistic studies. The addition of various thymidine concentrations (varying from 0.1875 to 1.5 µM) then started the process. Thymidine cleavage was tracked at 290 nm for ten min straight using an ELISA plate reader (SpectraMax 384; Molecular Devices, San Jose, CA, USA).
# [3] = 500 µM test compound, 0.058 U EcTP, 1.5 mM thymidine, 30°C, read-out: % Inhibition
# [4] = EcTP, thymidine substrate, absorbance at 290 nm, triplicate, read-out: IC50 ± SEM
# [5] = thymidine as variable substrate
# [6] = dissociation constant from secondary replot of Lineweaver-Burk and Dixon plots, unit printed in text b13 only, read-out: Ki ± SEM
# T1 sequence (P07650 whole entry): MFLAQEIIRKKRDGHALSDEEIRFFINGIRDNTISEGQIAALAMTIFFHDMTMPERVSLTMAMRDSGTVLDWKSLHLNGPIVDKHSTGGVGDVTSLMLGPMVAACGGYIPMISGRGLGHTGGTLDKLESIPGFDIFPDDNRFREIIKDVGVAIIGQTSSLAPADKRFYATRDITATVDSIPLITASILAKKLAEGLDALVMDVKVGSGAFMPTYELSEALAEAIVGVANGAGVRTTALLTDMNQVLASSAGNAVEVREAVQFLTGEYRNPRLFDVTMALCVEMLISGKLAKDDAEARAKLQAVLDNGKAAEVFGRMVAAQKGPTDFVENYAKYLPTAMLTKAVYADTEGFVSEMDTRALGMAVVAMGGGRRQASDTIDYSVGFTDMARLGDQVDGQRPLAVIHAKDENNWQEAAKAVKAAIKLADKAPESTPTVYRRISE
# T2 sequence (P07650 whole entry): as above
Structure (SMILES),"inhibition at 500 µM [1, 3] [%]","IC50 [1, 4] [µM]",Ki [2] [µM],"Type of Inhibitor [2, 5]",IC50 [1] [µM],inhibition at 500 µM [1] [%],"Ki [2, 6] [µM]",Type of Inhibitor [2]
"CC(C)=C(C)[C@H]1C[C@]2(C)OC3=C(C(=O)c4ccccc4C3=O)[C@H]3[C@@H]2[C@@]12C(=O)c1ccccc1[C@@]3(O)C2=O [Peshawaraquinone (3), Peshawaraquinone]",87.1,4.9 ± 0.8,–,–,–,–,–,–
"COC(=O)C1(O)c2ccccc2C(=O)C1(O)CC=C(C)C (stereo not drawn) [Indanone derivative (5), Methyl‐1,2‐dihydroxy‐2‐(3‐methylbut‐2‐en‐1‐yl)‐3‐oxo‐2,3‐dihydro‐1H‐indene‐1carboxylate]",–,–,7.1 ± 0.009,Non‐competitive,1.8 ± 0.5,91.3,–,–
"CC(C)=CCC1=C(O)C(=O)c2ccccc2C1=O [Lapachol (1), Lapachol]",86.2,2.3 ± 0.1,–,Non‐competitive,–,–,4.6 ± 0.006,–
"O=c1[nH]c(=O)c2cc[nH]c2[nH]1 [7‐Deazaxanthine, reference compound]",–,–,–,–,–,80.6,–,Non‐competitive
"CC1(C)CCC2=C(O1)C(=O)c1ccccc1C2=O [Alpha‐lapachone (2), Alpha‐lapachone]",88.3,3.6 ± 0.9,–,Non‐competitive,–,–,4.9 ± 0.008,–
"CC1(C)C=CC2=C(O1)C(=O)c1ccccc1C2=O [Dehydro‐α‐lapachone (4), Dehydro‐α‐lapachone]",82.6,17.2 ± 1,–,–,–,–,–,–
